Key:
[1] = Chemical stability of the compound assessed as half life; assay type: physicochemical
[2] = target: T1, 5-hydroxytryptamine receptor 3A (Homo sapiens, UniProt P46098); assay: Binding affinity to 5HT3A receptor
T1 sequence (P46098 whole entry): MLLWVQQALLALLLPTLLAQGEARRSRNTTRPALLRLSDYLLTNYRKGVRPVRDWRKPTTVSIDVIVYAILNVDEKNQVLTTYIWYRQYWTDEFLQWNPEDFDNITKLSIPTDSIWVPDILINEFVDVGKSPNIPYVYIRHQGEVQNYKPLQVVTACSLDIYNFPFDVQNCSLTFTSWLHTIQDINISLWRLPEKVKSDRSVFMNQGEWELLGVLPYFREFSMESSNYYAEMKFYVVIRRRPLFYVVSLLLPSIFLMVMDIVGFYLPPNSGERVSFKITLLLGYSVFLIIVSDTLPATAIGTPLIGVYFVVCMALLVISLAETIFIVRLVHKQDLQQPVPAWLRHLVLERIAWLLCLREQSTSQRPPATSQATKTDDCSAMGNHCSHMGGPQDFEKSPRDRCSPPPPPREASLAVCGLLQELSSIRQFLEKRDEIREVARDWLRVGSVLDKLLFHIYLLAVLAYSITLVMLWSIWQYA

half-life [1]	Ki [2]	Structure (SMILES)
5 h		CN1C2CCCC1CC(NC(=O)c1nn(C)c3ccccc13)C2 (stereo not drawn) [GRANISETRON]
38 h	31.6 pM	O=C1c2cccc3c2[C@H](CCC3)CN1[C@@H]1CN2CCC1CC2 [PALONOSETRON]
